# Values of other authors, collected in patent publication EP3628310A1, “PHARMACEUTICAL COMPOSITION COMPRISING SOLID DISPERSIONS OF AMORPHOUS CLADRIBINE AND PHARMACEUTICALLY ACCEPTABLE WATER SOLUBLE CARRIER” (Synbias Pharma AG, priority 2018, dated 2020).
# Where two headings read alike, the source gives them in different places.
smiles,measurement,setting,value
"Nc1nc(Cl)nc2c1ncn2[C@H]1C[C@H](O)[C@@H](CO)O1 [Tablet 2-CdA, 2-chloro-2'-deoxyadenosine]",calculated half time T1/2,"pH 1, 37°C",22.2 min
same,2-CdA content,"pH 1, after 2 h of heating to 37°C",2%
same,2-CdA remains in solution,"pH 2, 37°, after 6 h",13%
same,calculated half time T1/2,"pH 2, 37°C",96 min
